Measured values published in patent US12509474B2, “Inhibitors of complement factors and uses thereof” (Annexon, Inc., priority 2020, dated 2025).
Structures can show the parent of a compound that is named as a salt.

molecular target: T1, human C1s protein (Homo sapiens, UniProt P09871); test: C1s enzymatic assay (hydrolysis of YLGR-Rh110-dPro); assay type: biochemical; details: substrate YLGR-Rh110-dPro 20 μM, 15 min pre-incubation, 60 min RT, fluorescence, read-out: hC1s pIC50 (converted)
T1 construct: A104
T1 sequence (P09871 16-688): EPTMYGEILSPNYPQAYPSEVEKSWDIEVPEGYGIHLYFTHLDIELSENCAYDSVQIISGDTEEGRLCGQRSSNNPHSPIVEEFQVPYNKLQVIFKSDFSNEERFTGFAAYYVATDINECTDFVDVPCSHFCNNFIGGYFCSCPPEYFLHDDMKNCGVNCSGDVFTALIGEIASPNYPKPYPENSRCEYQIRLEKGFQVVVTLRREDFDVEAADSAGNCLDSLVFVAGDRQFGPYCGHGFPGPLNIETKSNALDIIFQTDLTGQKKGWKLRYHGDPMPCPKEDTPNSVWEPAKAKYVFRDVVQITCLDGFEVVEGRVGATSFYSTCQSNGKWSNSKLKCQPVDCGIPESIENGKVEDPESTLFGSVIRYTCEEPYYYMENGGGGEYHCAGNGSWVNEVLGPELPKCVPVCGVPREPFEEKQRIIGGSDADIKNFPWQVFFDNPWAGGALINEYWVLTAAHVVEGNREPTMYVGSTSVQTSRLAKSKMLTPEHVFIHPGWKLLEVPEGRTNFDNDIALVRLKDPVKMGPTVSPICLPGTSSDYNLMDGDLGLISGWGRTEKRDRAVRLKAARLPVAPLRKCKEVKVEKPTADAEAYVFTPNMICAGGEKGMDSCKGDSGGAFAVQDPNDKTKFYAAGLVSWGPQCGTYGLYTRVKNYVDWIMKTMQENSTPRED
Method in brief: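 Fluorogenic assay in which C1s cleaves YLGR-Rh110-dPro (20 μM final) to release fluorescent Rh110, in buffer with 0.1 mg/mL BSA. Enzyme was preincubated 15 min with compound before substrate was added. Compounds were run as 11-point curves, with DMSO as high control and Nafamostat as low control.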

Compound	IC50 [nM]
COc1ccc(B(O)O)cc1-c1ccc2c(N)ccnc2c1 [Example 109, [3-(4-aminoquinolin-7-yl)-4-methoxyphenyl]boronic Acid]	871
Nc1cnnc2cc(-c3cc(B(O)O)ccc3OCCC3CCCO3)ccc12 (centres unmarked) [Example 110, [3-(4-aminocinnolin-7-yl)-4-[2-(oxolan-2-yl)ethoxy]phenyl]boronic Acid]	0.661
COc1ccc(B(O)O)cc1-c1ccc2c(N)ncc(C)c2c1 [Example 111, [3-(1-amino-4-methylisoquinolin-6-yl)-4-methoxyphenyl]boronic Acid]	17.4
Nc1cnnc2cc(-c3cc(B(O)O)ccc3OCCC3CCOC3)ccc12 (centres unmarked) [Example 112, [3-(4-aminocinnolin-7-yl)-4-[2-(oxolan-3-yl)ethoxy]phenyl]boronic Acid]	0.776
CC1(C)COC(COc2ccc(B(O)O)cc2-c2ccc3c(N)cnnc3c2)C1 (centres unmarked) [Example 114, [3-(4-aminocinnolin-7-yl)-4-[(4,4-dimethyloxolane-2-yl)methoxy]phenyl]boronic Acid]	1.05
Nc1cnnc2cc(-c3cc(B(O)O)ccc3OCCC3CC3)ccc12 [Example 115, [3-(4-aminocinnolin-7-yl)-4-(2-cyclopropylethoxy)phenyl]boronic Acid]	0.794
COc1cc(C#N)c(B(O)O)cc1-c1ccc2c(N)nnc(C)c2c1 [Example 116, [5-(1-amino-4-methylphthalazin-6-yl)-2-cyano-4-methoxyphenyl]boronic Acid]	2.24
Nc1cnnc2cc(-c3cc(B(O)O)ccc3OC3CCC3)ccc12 [Example 117, [3-(4-aminocinnolin-7-yl)-4-cyclobutoxyphenyl]boronic Acid]	0.708
Nc1cnnc2cc(-c3cc(B(O)O)ccc3OCC(F)(F)F)ccc12 [Example 118, [3-(4-aminocinnolin-7-yl)-4-(2,2,2-trifluoroethoxy)phenyl]boronic Acid Formic Acid Salt]	1.1

Further lines, results first:

IC50 [nM]	Compound
0.646	Cc1nc2c(-c3ccc4c(N)cnnc4c3)cc(B(O)O)cc2o1 [Example 119, [4-(4-aminocinnolin-7-yl)-2-methyl-1,3-benzoxazol-6-yl]boronic Acid Formic Acid Salt]
11.2	CC(C)NC(=O)c1ccc(B(O)O)cc1-c1ccc2c(N)cnnc2c1 [Example 120, [3-(4-aminocinnolin-7-yl)-4-(propan-2-ylcarbamoyl)phenyl]boronic Acid Formic Acid Salt]
4.9	C[C@@H]1C[C@@H](Oc2ccc(B(O)O)cc2-c2ccc3c(N)cnnc3c2)C[C@H](C)O1 [Example 121, [3-(4-aminocinnolin-7-yl)-4-{[(2R,4S,6S)-2,6-dimethyloxan-4-yl]oxy}phenyl]boronic Acid]
1.17	Cc1nc2cc(B(O)O)cc(-c3ccc4c(N)cnnc4c3)c2o1 [Example 122, [7-(4-aminocinnolin-7-yl)-2-methyl-1,3-benzoxazol-5-yl]boronic Acid Formic Acid Salt]
0.851	C[C@@H]1C[C@H](Oc2ccc(B(O)O)cc2-c2ccc3c(N)cnnc3c2)C[C@H](C)O1 [Example 123, [3-(4-aminocinnolin-7-yl)-4-{[(2R,4R,6S)-2,6-dimethyloxan-4-yl]oxy}phenyl]boronic Acid Formic Acid Salt]
7.59	Nc1cnnc2cc(-c3cc(B(O)O)ccc3C(=O)N3CCCC3)ccc12 [Example 124, [3-(4-aminocinnolin-7-yl)-4-(pyrrolidine-1-carbonyl)phenyl]boronic Acid]
3.24	Cc1nc2c(-c3ccc4c(N)nnc(C)c4c3)cc(B(O)O)cc2o1 [Example 125, [4-(1-amino-4-methylphthalazin-6-yl)-2-methyl-1,3-benzoxazol-6-yl]boronic Acid Formic Acid Salt]
6.03	Nc1cnnc2cc(-c3cc(B(O)O)ccc3OC3CCC(=O)NC3)ccc12 (centres unmarked) [Example 126, [3-(4-aminocinnolin-7-yl)-4-[(6-oxopiperidin-3-yl)oxy]phenyl]boronic Acid]
